From US20130096310A1, “ISOQUINOLINE DERIVATIVE” (TAISHO PHARMACEUTICAL CO., LTD., priority 2010, published 2013)

Molecular target: T1, CRTH2 (Homo sapiens, UniProt Q9Y5Y4)
T1 construct: expressed in transfected cells; host or cells: KB8 cells (human)
T1 sequence (Q9Y5Y4 1-395): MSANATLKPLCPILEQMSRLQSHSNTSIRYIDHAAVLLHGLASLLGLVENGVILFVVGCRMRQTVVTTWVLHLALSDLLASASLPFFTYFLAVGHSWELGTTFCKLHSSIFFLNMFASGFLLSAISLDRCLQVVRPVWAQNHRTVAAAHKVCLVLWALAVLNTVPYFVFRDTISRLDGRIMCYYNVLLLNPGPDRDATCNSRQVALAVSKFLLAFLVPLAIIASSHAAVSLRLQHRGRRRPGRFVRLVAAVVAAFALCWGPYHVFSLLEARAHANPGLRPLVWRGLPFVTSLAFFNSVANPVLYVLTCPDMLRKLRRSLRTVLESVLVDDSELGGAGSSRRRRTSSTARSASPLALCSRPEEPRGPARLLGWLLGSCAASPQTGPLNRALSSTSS
Assay: CRTH2 antagonist test: inhibition of PGD2-induced intracellular calcium ion concentration increase in KB8 cells
Format: cell-based
Conditions: KB8 cells (human cells expressing CRTH2); PGD2 final concentration 100 nM; Fluo-4-AM, FDSS6000
Description: The antagonist activity of the compound of the present invention was considered by using the intracellular calcium ion concentration increase reaction induced when the prostaglandin D2 was added to KB8 cells, which are human cells on which CRTH2 is expressed.
Fluo-4-AM (SIGMA, final concentration: 1 μM) was added to KB8 cells, and the cells were incubated at 37° C. for 30 minutes, washed with phosphate buffer (Invitrogen), and then suspended in Hank's balanced salt solution (Invitrogen) containing a reaction buffer solution (10 mM HEPES (Invitrogen), and 1 mM calcium chloride (SIGMA)). The suspension was dispensed in a 96 well plate (Nunc) so that 2×10^5 cells/well were placed, and the compound of the present invention and PGD2 (final concentration: 100 nM) were added. The fluorescence intensity thereof was measured over time by using FDSS6000 (Hamamatsu Photonics), and thus the maximum fluorescence intensity value “d” was obtained. The same procedure was carried out in the absence of the compound, and the maximum fluorescence intensity value “e” was obtained; and the same procedure was carried out in the absence of the compound and in […], and the maximum fluorescence intensity value “f” was obtained.
The calcium ion concentration increase inhibition rate of a compound was calculated by the following calculation equation:
Inhibitory rate(%)=[1−(d−f)/(e−f)]×100
That is to say, by using calcium ion concentration increase inhibitory rates of compounds to be tested having various concentrations, the IC50 value was calculated according to a dose-dependent inhibition curve analyzed by using XLfit (IDBS) as a data analysis software, and the value was defined as an indicator of the antagonist activity.

SMILES	IC50 [nM]
O=C(O)Cc1cnc(C(F)(F)c2ccc(C(=O)NCCc3ccc(Cl)cc3)cc2)c2ccccc12 [Example 2, {1-[(4-{[2-(4-chlorophenyl)ethyl]carbamoyl}phenyl)(difluoro)methyl]isoquinolin-4-yl}acetic acid]	36
Cc1cc(Cc2ncc(CC(=O)O)c3ccccc23)ccc1C(=O)NCCc1ccc(Cl)cc1 [Example 5, [1-(4-{[2-(4-chlorophenyl)ethyl]carbamoyl}-3-methylbenzyl)isoquinolin-4-yl]acetic acid]	42
O=C(O)Cc1cnc(Cc2ccc(C(=O)NCCc3ccc(Cl)cc3)c(C(F)(F)F)c2)c2ccccc12 [Example 7, {1-[4-{[2-(4-chlorophenyl)ethyl]carbamoyl}-3-(trifluoromethyl)benzyl]isoquinolin-4-yl}acetic acid]	14

Further molecules by falling IC50, results first:

IC50 [nM]	SMILES
17	COc1cc(Cc2ncc(CC(=O)O)c3ccccc23)ccc1C(=O)NCCc1ccc(Cl)cc1 [Example 3, [1-(4-{[2-(4-chlorophenyl)ethyl]carbamoyl}-3-methoxybenzyl)isoquinolin-4-yl]acetic acid]
15	O=C(O)Cc1cnc(Cc2ccc(C(=O)NCCc3ccc(Cl)cc3)cc2F)c2ccccc12 [Example 4, [1-(4-{[2-(4-chlorophenyl)ethyl]carbamoyl}-2-fluorobenzyl)isoquinolin-4-yl]acetic acid]
8.7	O=C(O)Cc1cnc(Cc2ccc(C(=O)NCCc3ccc(Cl)cc3)c(F)c2)c2ccccc12 [Example 6, [1-(4-{[2-(4-chlorophenyl)ethyl]carbamoyl}-3-fluorobenzyl)isoquinolin-4-yl]acetic acid]
4.4	CC(c1ccc(C(=O)NCCc2ccc(Cl)cc2)cc1)c1ncc(CC(=O)O)c2ccccc12 (stereo not shown) [Example 1, {1-[1-(4-{[2-(4-chlorophenyl)ethyl]carbamoyl}phenyl)ethyl]isoquinolin-4-yl}acetic acid]
